Assay results from PubChem BioAssay AID504882 (Broad Institute, 2011).
Inconclusive results are not listed. The source made the active and inactive calls. How the calls were made is not given here.

Test system: EBV lymphoblastoid cells (LCL) viability, plate reader
Test: cytotoxicity in EBV lymphoblastoid cells, dose response, cytotoxicity control, cell-based, plate reader, cherry-picks, set 2 (AID 504882)

Q: Which AC50 does the source give for CC(=O)OC1CCC2(C)C(CCC3C4CC=C(C(C)=O)C4(C)OC(=O)CC32)C1 (stereo not drawn) here?
A: 3.85 µM

Q: For CN=C1S/C(=C\c2ccc(O)c(Br)c2)C(=O)N1C, which AC50 is on record?
A: > 19.5 µM (inactive)

Q: Which AC50 does the source give for CN1CCN(/N=C/c2ccc(N(c3ccccc3)c3ccccc3)cc2)CC1 here?
A: 0.354 µM

Q: With O=C(c1ccccc1)C(CCC(CN1CCOCC1)C(=O)c1ccccc1)CN1CCOCC1 (stereo not drawn) as the compound, how does the AC50 read?
A: 7.73 µM

Q: How did the AC50 turn out when CCn1c2ccccc2c2cc(/C=N/NC(=O)c3ccncc3)ccc21 was run?
A: 3.31 µM

Q: For O=C1C(=C(c2ccccc2)N2CCOCC2)Cc2ccccc21, which AC50 is on record?
A: 5.38 µM

Q: For Nc1ccn([C@@H]2O[C@H](CO)[C@@H](O)[C@@H]2O)c(=O)n1, which AC50 is on record?
A: 0.748 µM

Q: For O=C(Nc1nc(-c2ccccn2)cs1)c1ccc(Cl)s1, which AC50 is on record?
A: 1.34 µM

Q: Which AC50 does the source give for Cc1cc(=O)[nH]c(N=N/C(=N/Nc2ccccc2C)c2ccccc2)n1 here?
A: 8.28 µM

Q: O=C(NNC(=S)Nc1ccc(Cl)c(Cl)c1)c1ccccn1 was tested. Which AC50 did it give?
A: 1.5 µM

Q: CCOc1cccc(/C=N/Nc2ccc(S(=O)(=O)N(CC)CC)cn2)c1O was tested. Which AC50 did it give?
A: 1.79 µM

Q: Which AC50 does the source give for NC(=S)NN=Cc1nccc2c(C(F)(F)F)cccc12 here?
A: 1.15 µM

Q: How did the AC50 turn out when CS(=O)(=O)c1ncc(Cl)c(C(=O)Nc2ccc(OC(F)F)cc2)n1 was run?
A: 4.53 µM

Q: Which AC50 does the source give for COc1ccc(C(=O)NC2CCCc3c2cnn3-c2cccc(C)c2C)c(OC)n1 (stereo not drawn) here?
A: 1.22 µM

Q: For CCc1ccc(Nc2n[n+](-c3ccccc3)c(-c3c(Cl)cccc3Cl)s2)cc1, which AC50 is on record?
A: 15 µM

Q: How did the AC50 turn out when O=C(/C=C1\NC2(CCCC2)Cc2ccccc21)C(=O)N/N=C/c1ccccc1O was run?
A: 18 µM

Q: With Oc1c(C(Nc2nc3ccccc3s2)c2ccco2)ccc2cccnc12 (stereo not drawn) as the compound, how does the AC50 read?
A: 2 µM

Q: How did the AC50 turn out when c1ccc(C(=NNc2nc3ccccc3s2)c2ccccn2)cc1 was run?
A: 1.06 µM

Q: Cc1sc2ncnc(N/N=C/c3ccccc3O)c2c1C was tested. Which AC50 did it give?
A: 3.59 µM

Q: With Cc1cc(Sc2nnc(/N=C/N(C)C)s2)c2ccccc2n1 as the compound, how does the AC50 read?
A: 9.16 µM

Q: How did the AC50 turn out when O=C(CCc1ccccc1)NC(c1cccs1)c1cc(Cl)c2cccnc2c1O (stereo not drawn) was run?
A: 7.03 µM

Q: For O=[N+]([O-])c1c(Nc2cccc(O)c2)cc(Cl)c2nonc12, which AC50 is on record?
A: 2.73 µM

Q: With CC(=NNC(=S)Nc1cccc(Cl)c1)c1ccccn1 as the compound, how does the AC50 read?
A: 0.138 µM

Q: How did the AC50 turn out when O=C(c1cccc(F)c1)N1CCN(c2cccc(Cl)c2)CC1 was run?
A: 3.11 µM

Q: With CCN(CC)c1ccc(/C=N/NC(=O)c2ccc3nc[nH]c3c2)c(O)c1 as the compound, how does the AC50 read?
A: 4.14 µM

Q: Which AC50 does the source give for CCN1CCN(Cc2ccc(NC(=O)c3ccc(C)c(/C=C/c4cnc(Nc5cc(N6CCNCC6)nc(C)n5)cn4)c3)cc2C(F)(F)F)CC1 here?
A: 9.23 µM

Q: Which AC50 does the source give for CC(=NNC(=S)N1CCN(c2ccccn2)CC1)c1nccs1 here?
A: 0.429 µM

Q: How did the AC50 turn out when O=C(CCl)N(c1ccc(Cl)cc1)c1c[nH]c2ccccc12 was run?
A: 3.35 µM

Q: Which AC50 does the source give for NC(=S)NN=Cc1nccc2c(N)cccc12 here?
A: 1.04 µM

Q: For COc1cc(C(=O)Oc2ccccc2/C=N/NC(=O)c2ccc(C)c(Cl)c2)cc(OC)c1OC, which AC50 is on record?
A: 12.7 µM

Q: Which AC50 does the source give for S=C(NCCCN1CCOCC1)N1CCN(c2nc(-c3ccc(Cl)cc3)cs2)CC1 here?
A: 12.9 µM

Q: How did the AC50 turn out when CCNc1ccc(Br)cc(C(=O)/C=C/c2ccccc2Cl)c1=O was run?
A: 15.3 µM

Q: For Cn1c(/C=C/c2ccccc2)nc2ccccc21, which AC50 is on record?
A: 13.9 µM

Q: Which AC50 does the source give for O=C(Nc1nc(-c2ccccn2)cs1)c1ccc(Br)s1 here?
A: 1.29 µM

Q: CCOC(=O)c1c(CSc2nc(C)cc(C)c2C#N)n(C)c2cc(Br)c(OC(C)=O)cc12 was tested. Which AC50 did it give?
A: 14.6 µM

Q: With Cc1[nH]n(-c2ccccc2)c(=O)c1/C=N/Nc1nncc(-c2ccccc2)n1 as the compound, how does the AC50 read?
A: 0.83 µM

Q: Which AC50 does the source give for O=c1[nH]c(=O)n([C@H]2C[C@H](O)[C@@H](CO)O2)cc1C(F)(F)F here?
A: 1.51 µM

Q: With COc1ccc(-c2[nH]ncc2-c2ccc3c(c2)OCCO3)c(O)c1 as the compound, how does the AC50 read?
A: > 19.5 µM (inactive)

Q: Which AC50 does the source give for CCNc1ccc(Br)cc(C(=O)/C=C/c2c(Cl)cccc2Cl)c1=O here?
A: 13.8 µM

Q: Which AC50 does the source give for Cc1ccc(C(=O)N/N=C/c2c(O)ccc3ccccc23)cn1 here?
A: 17 µM

Q: With NC(=S)NN=Cc1nccc2c(C(F)(F)C(F)(F)C(F)(F)F)cccc12 as the compound, how does the AC50 read?
A: 0.452 µM

Q: COc1ccc(-c2nnc(NC(=O)c3ccc(S(=O)(=O)N4CCCc5ccccc54)cc3)o2)cc1 was tested. Which AC50 did it give?
A: 15 µM

Q: CCOc1ccc(/C=C/[N+](=O)[O-])c2ccccc12 was tested. Which AC50 did it give?
A: 1.92 µM

Q: CCn1c2ccccc2c2cc(/C=N/n3cn[nH]c3=S)ccc21 was tested. Which AC50 did it give?
A: 3.79 µM

Q: How did the AC50 turn out when COc1ccc(O)c(/C=N/NC(=O)c2ccc(OCc3cccc(Br)c3)cc2)c1 was run?
A: 4.03 µM

Q: For CC(=NNc1nc2ccccc2s1)c1ncccn1, which AC50 is on record?
A: 10.2 µM

Q: For CCCCCCc1cc2cc(-c3nnc(-c4ccccc4)o3)c(=O)oc2cc1O, which AC50 is on record?
A: 9.34 µM

Q: With Oc1cccc2ccc(Nc3ccccn3)nc12 as the compound, how does the AC50 read?
A: 6.35 µM
